This test deals with T1, CueO (copper efflux oxidase) (Escherichia coli, UniProt P36649).
T1 sequence (P36649 29-516): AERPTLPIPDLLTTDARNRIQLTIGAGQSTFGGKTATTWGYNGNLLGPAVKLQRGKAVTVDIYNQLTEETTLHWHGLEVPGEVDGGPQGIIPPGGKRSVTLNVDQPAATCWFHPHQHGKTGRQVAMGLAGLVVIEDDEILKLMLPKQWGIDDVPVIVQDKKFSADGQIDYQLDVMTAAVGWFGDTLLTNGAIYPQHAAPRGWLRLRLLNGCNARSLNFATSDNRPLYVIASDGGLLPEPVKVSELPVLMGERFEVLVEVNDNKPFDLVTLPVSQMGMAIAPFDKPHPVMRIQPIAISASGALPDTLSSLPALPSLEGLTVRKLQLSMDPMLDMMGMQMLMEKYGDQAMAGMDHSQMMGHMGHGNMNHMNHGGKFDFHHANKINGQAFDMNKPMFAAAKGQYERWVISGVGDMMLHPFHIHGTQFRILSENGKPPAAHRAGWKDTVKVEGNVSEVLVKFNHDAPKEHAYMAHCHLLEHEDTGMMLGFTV
As to conditions: immobilised on cysteamine-modified polycrystalline Au; O2-saturated phosphate buffer; 100-200 mM fluoride; direct electron transfer.

As for `F` [F−, sodium fluoride], the “cyclic voltammetry and chronoamperometry of electrocatalytic O2 reduction” value is listed as “the current density decreases significantly after the addition of fluoride”.

(Values after publication PMC6117412, “Comprehensive Study of the Enzymatic Catalysis of the Electrochemical Oxygen Reduction Reaction (ORR) by Immobilized Copper Efflux Oxidase (CueO) From Escherichia coli” (Frontiers in Chemistry, 2018).)
